Assays:
D(2) dopamine receptor = D(2) dopamine receptor (Homo sapiens, UniProt P14416); assay: Agonist activity at human recombinant dopamine D2 receptor expressed in rat pituitary cells assessed as inhibition of forskolin-stimulated cAMP accumulation; type: functional, cell-based, Pituitary gland cell
D(3) dopamine receptor = D(3) dopamine receptor (Homo sapiens, UniProt P35462); assay: Agonist activity at human recombinant dopamine D3 receptor expressed in CHO cells assessed as inhibition of forskolin-stimulated cAMP accumulation; type: functional, cell-based
[1] = Clearance in human; type: ADME, organism-based; conditions: in vivo

D(2) dopamine receptor, sequence (P14416 whole entry): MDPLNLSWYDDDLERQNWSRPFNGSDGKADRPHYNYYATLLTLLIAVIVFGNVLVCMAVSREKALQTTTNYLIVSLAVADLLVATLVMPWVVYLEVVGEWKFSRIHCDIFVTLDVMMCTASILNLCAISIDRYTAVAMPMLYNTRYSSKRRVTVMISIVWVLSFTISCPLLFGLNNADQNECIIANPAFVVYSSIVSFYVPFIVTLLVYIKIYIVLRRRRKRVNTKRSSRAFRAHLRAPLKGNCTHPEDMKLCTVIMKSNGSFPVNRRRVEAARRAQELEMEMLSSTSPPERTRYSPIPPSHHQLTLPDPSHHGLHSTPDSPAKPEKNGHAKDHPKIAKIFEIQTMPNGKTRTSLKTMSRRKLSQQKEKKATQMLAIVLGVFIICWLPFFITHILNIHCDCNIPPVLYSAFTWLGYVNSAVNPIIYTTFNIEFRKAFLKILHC
D(3) dopamine receptor, sequence (P35462 whole entry): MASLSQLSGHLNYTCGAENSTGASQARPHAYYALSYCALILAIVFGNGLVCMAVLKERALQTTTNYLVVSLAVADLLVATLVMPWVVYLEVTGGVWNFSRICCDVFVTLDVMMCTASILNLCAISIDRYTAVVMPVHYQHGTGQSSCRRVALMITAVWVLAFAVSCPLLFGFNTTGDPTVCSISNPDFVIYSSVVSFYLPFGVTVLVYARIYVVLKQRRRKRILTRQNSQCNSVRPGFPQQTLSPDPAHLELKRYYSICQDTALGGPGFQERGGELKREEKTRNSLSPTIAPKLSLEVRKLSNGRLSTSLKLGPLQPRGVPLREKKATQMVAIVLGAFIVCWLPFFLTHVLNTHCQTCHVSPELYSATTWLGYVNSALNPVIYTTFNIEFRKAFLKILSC

Row | SMILES | EC50 (D(2) dopamine receptor) [µM] | EC50 (D(3) dopamine receptor) [µM] | clearance [1] [mL/min/kg]
1 | CCCN1CCOC(c2cccc(C(=O)O)c2)C1 (centres undefined) | > 10 | > 1 | 
2 | CCCN1CCOC(c2cc(O)ccc2Br)C1 (centres undefined) |  | > 10 | 
3 | CNC[C@H](O)c1cccc(O)c1 [PHENYLEPHRINE] |  |  | 30
4 | CCCN1CCOC(c2ccc(O)c(C(N)=O)c2)C1 (centres undefined) |  | 0.427 | 
5 | Oc1cccc(C2CNCCO2)c1 (centres undefined) | 7.2 | 0.864 | 
6 | CCCN1CCOC(c2ccc(Cl)c(O)c2)C1 (centres undefined) |  | > 0.688 | 
7 | CCCN1CCOC(c2cccc(Cl)c2)C1 (centres undefined) | > 10 | > 2.8 | 
8 | CCCN1CCOC(c2cccc(C(=O)OC)c2)C1 (centres undefined) |  | > 1 | 
9 | CCCN1CCOC(c2cccc(S(C)(=O)=O)c2)C1 (centres undefined) | > 10 | > 1 | 
10 | CCCN1CCOC(c2cccc(O)c2)C1 (centres undefined) | > 10 | 0.027 | 
11 | CCCN1CCOC(c2cc(O)cc(O)c2)C1 (centres undefined) |  | 0.037 | 
12 | CCCN1CCOC(c2ccccc2)C1 (centres undefined) | > 10 | > 1 | 
13 | COCCN1CCOC(c2cccc(O)c2)C1 (centres undefined) | > 10 | > 3 | 
14 | CCCN1CCC[C@@H]2Cc3nc(N)ncc3C[C@H]21 [QUINELORANE] | 0.002 |  | 
15 | CCCN1CCOC(c2cccc(O)c2C)C1 (centres undefined) |  | > 1 | 
16 | CCCN1CCO[C@@H](c2ccc(F)c(O)c2)C1 | > 10 | > 10 | 
17 | CCCN1CCOC(c2cc(O)cc(C(N)=O)c2)C1 (centres undefined) |  | > 10 | 
18 | CCCN1CCOC(c2cccc(C#N)c2)C1 (centres undefined) |  | > 1 | 
19 | CCCN1CCOC(c2cccc(OC(F)(F)F)c2)C1 (centres undefined) | > 1 | > 1 | 
20 | CCCN1CCOC(c2ccc(O)cc2)C1 (centres undefined) |  | > 1 | 
21 | CCCN1CCOC(c2ccc(O)c(-n3cnnc3)c2)C1 (centres undefined) |  | > 1 | 
22 | CCCN1CCOC(c2ccc(O)c(NS(C)(=O)=O)c2)C1 (centres undefined) |  | > 1 | 
23 | CCCN1CCOC(c2cccc(-c3nnc[nH]3)c2)C1 (centres undefined) |  | > 1 | 
24 | C=CCN1CCOC(c2cccc(O)c2)C1 (centres undefined) | > 100 | 1.31 | 

Source: ChEMBL document CHEMBL1140586, “Design and synthesis of a functionally selective D3 agonist and its in vivo delivery via the intranasal route” (Bioorg Med Chem Lett, 2007)
